Results on 14 compounds are retold here after US8133884B2, “Compounds for the treatment of hepatitis C” (priority 2008, dated 2012).

The first test concerns HCV replicon. The test is described as follows: HCV replicon assay (FRET or luciferase reporter). As to conditions: Hepatitis C virus, one of the methods described, class symbol. Format: cell-based. The method, boiled down: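 HCV replicon Huh-7 cells were exposed to titrated compound at 37 °C, with Alamar blue as a cytotoxicity read. Replication was measured by NS3 cleavage of an EDANS/DABCYL FRET peptide (20 μM, 340/490 nm kinetic read) or by Renilla luciferase, with background from high-dose protease inhibitor wells. EC50 was taken as 50% signal reduction; a 384-well format used 3.0×10^3 cells/well, 0.5% DMSO and 3 days.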
On the technique in general: A replicon is a self-replicating genome or part of one, used to study replication in cells.
Take `COc1ccc2c(c1)C=C(c1c(C(=O)N3C[C@@H](C)N(C)[C@@H](C)C3)cnn1C1CC1)Cn1c-2c(C2CCCCC2)c2ccc(C(=O)NS(=O)(=O)C(C)C)cc21`: the 50% effective concentration (EC50) (usually the midpoint of the concentration-response curve) lay in the range of 1.7 to 500 nM.
The same measure, in the same setting: as for `COc1ccc2c(c1)C=C(c1c(C(=O)N3CCOCC3)cnn1C1CC1)Cn1c-2c(C2CCCCC2)c2ccc(C(=O)NS(=O)(=O)C(C)C)cc21`, the figure is 1.7 to 500 nM; as for `COc1ccc2c(c1)C=C(c1nn(C3CC3)cc1C(=O)N1CCOCC1)Cn1c-2c(C2CCCCC2)c2ccc(C(=O)NS(=O)(=O)C(C)C)cc21`, 1.7 to 500 nM; as for `COc1ccc2c(c1)C=C(c1c(C(=O)N3C[C@@H](C)O[C@@H](C)C3)cnn1C1CCC1)Cn1c-2c(C2CCCCC2)c2ccc(C(=O)NS(=O)(=O)C(C)C)cc21`, 1.7 to 500 nM.
On the same count and under the same terms, in the case of `COc1ccc2c(c1)C=C(c1c(C(=O)N3CC4CCC(C3)N4C)cnn1C1CCC1)Cn1c-2c(C2CCCCC2)c2ccc(C(=O)NS(=O)(=O)C(C)C)cc21` it was 1.7 to 500 nM; in that of `COc1ccc2c(c1)C=C(c1c(C(=O)N3C4CCC3CC(C)(O)C4)cnn1C1CCC1)Cn1c-2c(C2CCCCC2)c2ccc(C(=O)NS(=O)(=O)CC(C)C)cc21` (centres unmarked), 1.7 to 500 nM.
Turning to `COc1ccc2c(c1)C=C(c1c(C(=O)N3C4CCC3CC(C)(O)C4)cnn1C1CCC1)Cn1c-2c(C2CCCCC2)c2ccc(C(=O)NS(=O)(=O)C(C)C)cc21` (centres unmarked), the EC50 was in the range of 1.7 to 500 nM.
Still for that read-out and setting: as for `CCOC(=O)c1cnn(C2CCN(C)CC2)c1C1=Cc2cc(OC)ccc2-c2c(C3CCCCC3)c3ccc(C(=O)O)cc3n2C1`, the figure is 1.7 to 500 nM; as for `COc1ccc2c(c1)C=C(c1c(C(=O)N3C4COCC3COC4)cnn1C1CCN(C)CC1)Cn1c-2c(C2CCCCC2)c2ccc(C(=O)NS(=O)(=O)C(C)C)cc21`, 1.7 to 500 nM; as for `COc1ccc2c(c1)C=C(c1c(C(=O)N3CCOCC3)cnn1C1CCN(C)CC1)Cn1c-2c(C2CCCCC2)c2ccc(C(=O)NS(=O)(=O)C(C)C)cc21`, 1.7 to 500 nM.
Same read-out and setting: in the case of `COc1ccc2c(c1)C=C(c1c(C(=O)N3C4CCC3CN(C)C4)cnn1C1CCN(C)CC1)Cn1c-2c(C2CCCCC2)c2ccc(C(=O)NS(=O)(=O)C(C)C)cc21` it was 1.7 to 500 nM; in that of `COc1ccc2c(c1)C=C(c1c(C(=O)N3C[C@@H](C)O[C@@H](C)C3)cnn1C1CCN(C)CC1)Cn1c-2c(C2CCCCC2)c2ccc(C(=O)NS(=O)(=O)C(C)C)cc21`, 1.7 to 500 nM.
With `COc1ccc2c(c1)C=C(c1c(C(=O)N3C[C@@H](C)N(C)[C@@H](C)C3)cnn1C1CCN(C)CC1)Cn1c-2c(C2CCCCC2)c2ccc(C(=O)NS(=O)(=O)C(C)C)cc21`, the EC50 is 1.7 to 500 nM.
In turn, `CCOC(=O)c1cnn(C2CCN(C)CC2)c1C1=Cc2cc(OC)ccc2-c2c(C3CCCCC3)c3ccc(C(=O)NS(=O)(=O)C(C)C)cc3n2C1` yielded an EC50 of 1.7 to 500 nM.

The test is the same for the next values; noted with them: Hepatitis C virus, one of the methods described, exact value.
`COc1ccc2c(c1)C=C(c1c(C(=O)N3C4COCC3COC4)cnn1C1CCN(C)CC1)Cn1c-2c(C2CCCCC2)c2ccc(C(=O)NS(=O)(=O)C(C)C)cc21` came in with a half-maximal effective concentration (EC50) of 130 nM.
Still for that read-out and setting: in the case of `COc1ccc2c(c1)C=C(c1c(C(=O)N3C[C@@H](C)O[C@@H](C)C3)cnn1C1CCN(C)CC1)Cn1c-2c(C2CCCCC2)c2ccc(C(=O)NS(=O)(=O)C(C)C)cc21` it was 5.5 nM.

For the next test, the target named is T1, HCV NS5B (Hepatitis C virus genotype 1b, UniProt Q9WMX2).
T1 construct: The protein was expressed with an 18 amino acid C-terminal truncation to enhance the solubility; made in house; host or cells: E. coli BL21(DE3)
T1 sequence (Q9WMX2 2420-2992): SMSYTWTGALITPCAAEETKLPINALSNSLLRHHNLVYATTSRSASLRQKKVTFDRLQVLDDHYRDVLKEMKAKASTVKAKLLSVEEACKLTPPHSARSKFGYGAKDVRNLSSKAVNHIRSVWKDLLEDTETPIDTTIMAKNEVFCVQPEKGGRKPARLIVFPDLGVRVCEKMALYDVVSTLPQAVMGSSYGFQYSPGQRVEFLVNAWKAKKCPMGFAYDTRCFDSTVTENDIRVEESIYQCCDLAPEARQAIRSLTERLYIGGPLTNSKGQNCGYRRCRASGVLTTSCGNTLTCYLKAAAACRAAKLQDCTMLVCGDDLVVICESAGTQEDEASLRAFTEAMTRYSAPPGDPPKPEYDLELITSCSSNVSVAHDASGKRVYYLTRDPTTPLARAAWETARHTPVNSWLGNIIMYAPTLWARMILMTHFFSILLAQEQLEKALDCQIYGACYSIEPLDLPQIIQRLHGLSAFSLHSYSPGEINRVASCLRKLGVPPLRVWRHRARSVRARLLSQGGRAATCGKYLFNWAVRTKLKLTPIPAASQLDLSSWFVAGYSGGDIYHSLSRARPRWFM
Kind of test: Modified HCV NS5B RdRp enzyme assay (preincubation protocol). In kind it is biochemical. As to conditions: class symbol. Summed up: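 C-terminally truncated (Δ18) genotype 1b NS5B from E. coli, 14 nM, added to compound first, then polyA template (0.2 nM), 3H-UTP (0.29 μM) and oligo-dT12 primer precaptured on streptavidin SPA beads (20 nM). Run 4 h at 30° C, pH 7.5, 2% DMSO; IC50 fitted from seven concentrations.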
On to `COc1ccc2c(c1)C=C(c1c(C(=O)N3C[C@@H](C)N(C)[C@@H](C)C3)cnn1C1CC1)Cn1c-2c(C2CCCCC2)c2ccc(C(=O)NS(=O)(=O)C(C)C)cc21`, for which the IC50 (usually the midpoint of a concentration-inhibition curve) fell in the range of 1.7 to 500 nM.
The same measure, in the same setting: in the case of `COc1ccc2c(c1)C=C(c1c(C(=O)N3CCOCC3)cnn1C1CC1)Cn1c-2c(C2CCCCC2)c2ccc(C(=O)NS(=O)(=O)C(C)C)cc21` it was 1.7 to 500 nM; in that of `COc1ccc2c(c1)C=C(c1nn(C3CC3)cc1C(=O)N1CCOCC1)Cn1c-2c(C2CCCCC2)c2ccc(C(=O)NS(=O)(=O)C(C)C)cc21`, 1.7 to 500 nM; in that of `COc1ccc2c(c1)C=C(c1c(C(=O)N3C[C@@H](C)O[C@@H](C)C3)cnn1C1CCC1)Cn1c-2c(C2CCCCC2)c2ccc(C(=O)NS(=O)(=O)C(C)C)cc21`, 1.7 to 500 nM.
The compound `COc1ccc2c(c1)C=C(c1c(C(=O)N3CC4CCC(C3)N4C)cnn1C1CCC1)Cn1c-2c(C2CCCCC2)c2ccc(C(=O)NS(=O)(=O)C(C)C)cc21` showed an IC50 of 1.7 to 500 nM.
Still for that read-out and setting: as for `COc1ccc2c(c1)C=C(c1c(C(=O)N3C4CCC3CC(C)(O)C4)cnn1C1CCC1)Cn1c-2c(C2CCCCC2)c2ccc(C(=O)NS(=O)(=O)CC(C)C)cc21` (centres unmarked), the figure is 1.7 to 500 nM; as for `COc1ccc2c(c1)C=C(c1c(C(=O)N3C4CCC3CC(C)(O)C4)cnn1C1CCC1)Cn1c-2c(C2CCCCC2)c2ccc(C(=O)NS(=O)(=O)C(C)C)cc21` (centres unmarked), 1.7 to 500 nM.
As for `CCOC(=O)c1cnn(C2CCN(C)CC2)c1C1=Cc2cc(OC)ccc2-c2c(C3CCCCC3)c3ccc(C(=O)O)cc3n2C1`, the IC50 fell in the range of 1.7 to 500 nM.
Same read-out and setting: in the case of `COc1ccc2c(c1)C=C(c1c(C(=O)N3C4COCC3COC4)cnn1C1CCN(C)CC1)Cn1c-2c(C2CCCCC2)c2ccc(C(=O)NS(=O)(=O)C(C)C)cc21` it was 1.7 to 500 nM; in that of `COc1ccc2c(c1)C=C(c1c(C(=O)N3CCOCC3)cnn1C1CCN(C)CC1)Cn1c-2c(C2CCCCC2)c2ccc(C(=O)NS(=O)(=O)C(C)C)cc21`, 1.7 to 500 nM.
Still for that read-out and setting: as for `COc1ccc2c(c1)C=C(c1c(C(=O)N3C4CCC3CN(C)C4)cnn1C1CCN(C)CC1)Cn1c-2c(C2CCCCC2)c2ccc(C(=O)NS(=O)(=O)C(C)C)cc21`, the figure is 1.7 to 500 nM; as for `COc1ccc2c(c1)C=C(c1c(C(=O)N3C[C@@H](C)O[C@@H](C)C3)cnn1C1CCN(C)CC1)Cn1c-2c(C2CCCCC2)c2ccc(C(=O)NS(=O)(=O)C(C)C)cc21`, 1.7 to 500 nM; as for `COc1ccc2c(c1)C=C(c1c(C(=O)N3C[C@@H](C)N(C)[C@@H](C)C3)cnn1C1CCN(C)CC1)Cn1c-2c(C2CCCCC2)c2ccc(C(=O)NS(=O)(=O)C(C)C)cc21`, 1.7 to 500 nM.
`CCOC(=O)c1cnn(C2CCN(C)CC2)c1C1=Cc2cc(OC)ccc2-c2c(C3CCCCC3)c3ccc(C(=O)NS(=O)(=O)C(C)C)cc3n2C1` showed a 50% inhibitory concentration (IC50) of 1.7 to 500 nM.

The same test, now with this note: exact value.
`COc1ccc2c(c1)C=C(c1c(C(=O)N3C4COCC3COC4)cnn1C1CCN(C)CC1)Cn1c-2c(C2CCCCC2)c2ccc(C(=O)NS(=O)(=O)C(C)C)cc21`: the IC50 came to 7.5 nM.
Turning to `COc1ccc2c(c1)C=C(c1c(C(=O)N3C[C@@H](C)O[C@@H](C)C3)cnn1C1CCN(C)CC1)Cn1c-2c(C2CCCCC2)c2ccc(C(=O)NS(=O)(=O)C(C)C)cc21`, the IC50 turned out to be 5.4 nM.
